One data set has as its target T1, STK6 (Homo sapiens, UniProt O14965).
T1 construct: purchased in-house DSF (thermal shift) panel per Fedorov et al; IC50 follow-up at Reaction Biology Corp
Description: DSF thermal shift assay. The following applies: inhibitor 10 μM, protein 2 μM. It counts as binding. The method, then:
(§1) Differences in the melting temperature (ΔTm) were measured as described by Fedorov et al.. Purified proteins were buffered in 25 mM HEPES (pH 7.5), 500 mM NaCl and were assayed in a 384-well plate with a final protein concentration of 2 μM in 10 μL assay volume. Inhibitors were added to a final concentration of 10 μM using an ECHO 550 acoustic dispenser (Labcyte, San José, CA, USA). As a fluorescence probe, SYPRO-Orange (Molecular Probes, Eugene, OR, USA) was added in a 1:5000 dilution. […] Data were analyzed through Boltzmann equation in the Protein Thermal Shift software (Applied Biosystems, Waltham, MA, USA). Samples were measured in technical duplicates.

The next data set addresses T2, BRAF (Homo sapiens, UniProt P15056).
T2 construct: purchased in-house DSF (thermal shift) panel per Fedorov et al
As to the kind of experiment: DSF thermal shift assay. Conditions: inhibitor 10 μM, protein 2 μM. It counts as binding. The method, then:
as §1

The target of another data set is T3, PKMYT1 (Homo sapiens, UniProt Q99640).
T3 construct: purchased in-house DSF (thermal shift) panel per Fedorov et al; IC50 follow-up at Reaction Biology Corp
Description: DSF thermal shift assay. It is filed as binding. The following applies: inhibitor 10 μM, protein 2 μM. The method, then: as §1

In a further data set the target is T4, STK38L (Homo sapiens, UniProt Q9Y2H1).
T4 construct: purchased in-house DSF (thermal shift) panel per Fedorov et al; IC50 follow-up at Reaction Biology Corp
Description: DSF thermal shift assay. It is filed as binding. Conditions: inhibitor 10 μM, protein 2 μM. As for the experimental part:
as §1

The target of a further data set is T5, ULK3 (Homo sapiens, UniProt Q6PHR2).
T5 construct: purchased in-house DSF (thermal shift) panel per Fedorov et al
As to the kind of experiment: DSF thermal shift assay. It counts as binding. Conditions: inhibitor 10 μM, protein 2 μM. The method, then:
as §1

The next data set concerns the target T6, NEK1 (Homo sapiens, UniProt Q96PY6).
T6 construct: purchased in-house DSF (thermal shift) panel per Fedorov et al
As to the kind of experiment: DSF thermal shift assay. It counts as binding. The following applies: inhibitor 10 μM, protein 2 μM. The method, then:
as §1

In the next data set the target is T7, CHEK2 (Homo sapiens, UniProt O96017).
T7 construct: purchased in-house DSF (thermal shift) panel per Fedorov et al; IC50 follow-up at Reaction Biology Corp
Description: DSF thermal shift assay. It counts as binding. Conditions: inhibitor 10 μM, protein 2 μM. The method, then: as §1

A further data set addresses T8, CK2A1 (Homo sapiens, UniProt P68400).
T8 construct: purchased in-house DSF (thermal shift) panel per Fedorov et al
Description: DSF thermal shift assay. It is filed as binding. The following applies: inhibitor 10 μM, protein 2 μM. The method, then:
as §1

The target of the next data set is T9, MAP2K6 (Homo sapiens, UniProt P52564).
T9 construct: purchased in-house DSF (thermal shift) panel per Fedorov et al
Description: DSF thermal shift assay. It is filed as binding. The following applies: inhibitor 10 μM, protein 2 μM. As for the experimental part:
as §1

For another data set, the target named is T10, CLK1 (Homo sapiens, UniProt P49759).
T10 construct: purchased in-house DSF (thermal shift) panel per Fedorov et al; IC50 follow-up at Reaction Biology Corp
As to the kind of experiment: DSF thermal shift assay. It is filed as binding. Conditions: inhibitor 10 μM, protein 2 μM. The method, then:
as §1

The next data set deals with T11, PAK4 (Homo sapiens, UniProt O96013).
T11 construct: purchased in-house DSF (thermal shift) panel per Fedorov et al
Description: DSF thermal shift assay. It counts as binding. The following applies: inhibitor 10 μM, protein 2 μM. As for the experimental part:
as §1

A further data set deals with T12, MARK4 (Homo sapiens, UniProt Q96L34).
T12 construct: purchased in-house DSF (thermal shift) panel per Fedorov et al; IC50 follow-up at Reaction Biology Corp
Description: DSF thermal shift assay. It counts as binding. The following applies: inhibitor 10 μM, protein 2 μM. As for the experimental part:
as §1

The next data set addresses T13, RPS6KA6 (Homo sapiens, UniProt Q9UK32).
T13 construct: purchased in-house DSF (thermal shift) panel per Fedorov et al
As to the kind of experiment: DSF thermal shift assay. Conditions: inhibitor 10 μM, protein 2 μM. It is filed as binding. The method, then:
as §1

The next data set concerns the target T14, MAPK10 (Homo sapiens, UniProt P53779).
T14 construct: purchased in-house DSF (thermal shift) panel per Fedorov et al
Description: DSF thermal shift assay. It is filed as binding. The following applies: inhibitor 10 μM, protein 2 μM. The method, then:
as §1

A further data set has as its target T15, NEK7 (Homo sapiens, UniProt Q8TDX7).
T15 construct: purchased in-house DSF (thermal shift) panel per Fedorov et al
Description: DSF thermal shift assay. The following applies: inhibitor 10 μM, protein 2 μM. It is filed as binding. The method, then: as §1

Another data set deals with T16, PDK4 (Homo sapiens, UniProt Q16654).
T16 construct: purchased in-house DSF (thermal shift) panel per Fedorov et al; IC50 follow-up at Reaction Biology Corp
As to the kind of experiment: DSF thermal shift assay. It is filed as binding. The following applies: inhibitor 10 μM, protein 2 μM. The method, then: as §1

The target of a further data set is T17, STK17 (Homo sapiens, UniProt Q9UEE5).
T17 construct: purchased in-house DSF (thermal shift) panel per Fedorov et al
As to the kind of experiment: DSF thermal shift assay. It counts as binding. Conditions: inhibitor 10 μM, protein 2 μM. The method, then:
as §1

Another data set addresses T18, MAP3K5 (Homo sapiens, UniProt Q99683).
T18 construct: purchased in-house DSF (thermal shift) panel per Fedorov et al
As to the kind of experiment: DSF thermal shift assay. The following applies: inhibitor 10 μM, protein 2 μM. It is filed as binding. As for the experimental part: as §1

A further data set addresses T19, CLK3 (Homo sapiens, UniProt P49761).
T19 construct: purchased in-house DSF (thermal shift) panel per Fedorov et al
As to the kind of experiment: DSF thermal shift assay. It is filed as binding. The following applies: inhibitor 10 μM, protein 2 μM. As for the experimental part:
as §1

The nature of data set [1]: Aqueous degradation at pH 10.2. It counts as physicochemical. Conditions: sodium tetraborate buffer (28 mM), no nucleophile, read-out: t1/2 of aqueous degradation (converted). The method, then:
The Nα-acetyl lysine stability assay was performed in analogy to the GSH stability assay by substituting GSH with Nα-acetyl lysine at pH 7.4 and additionally at pH 10.2 to mimic the pKa depression often observed for biologically relevant lysines. PBS-buffer was substituted with a sodium tetraborate buffer (28 mM) for experiments at pH 10.2.
4. Nα-Acetyl Lysine Stability Assay

T16 sequence (Q16654 whole entry): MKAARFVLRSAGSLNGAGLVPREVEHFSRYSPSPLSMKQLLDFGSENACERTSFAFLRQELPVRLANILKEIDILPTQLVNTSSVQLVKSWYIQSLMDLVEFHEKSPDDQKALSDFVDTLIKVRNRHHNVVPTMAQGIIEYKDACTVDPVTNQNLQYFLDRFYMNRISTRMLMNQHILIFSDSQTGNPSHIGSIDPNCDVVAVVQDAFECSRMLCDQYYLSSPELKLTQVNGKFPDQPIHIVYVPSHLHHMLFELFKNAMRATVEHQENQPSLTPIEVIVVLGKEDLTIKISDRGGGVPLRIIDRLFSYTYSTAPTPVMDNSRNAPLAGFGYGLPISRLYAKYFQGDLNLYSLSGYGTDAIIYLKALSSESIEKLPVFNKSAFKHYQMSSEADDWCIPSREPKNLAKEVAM
T14 sequence (P53779 whole entry): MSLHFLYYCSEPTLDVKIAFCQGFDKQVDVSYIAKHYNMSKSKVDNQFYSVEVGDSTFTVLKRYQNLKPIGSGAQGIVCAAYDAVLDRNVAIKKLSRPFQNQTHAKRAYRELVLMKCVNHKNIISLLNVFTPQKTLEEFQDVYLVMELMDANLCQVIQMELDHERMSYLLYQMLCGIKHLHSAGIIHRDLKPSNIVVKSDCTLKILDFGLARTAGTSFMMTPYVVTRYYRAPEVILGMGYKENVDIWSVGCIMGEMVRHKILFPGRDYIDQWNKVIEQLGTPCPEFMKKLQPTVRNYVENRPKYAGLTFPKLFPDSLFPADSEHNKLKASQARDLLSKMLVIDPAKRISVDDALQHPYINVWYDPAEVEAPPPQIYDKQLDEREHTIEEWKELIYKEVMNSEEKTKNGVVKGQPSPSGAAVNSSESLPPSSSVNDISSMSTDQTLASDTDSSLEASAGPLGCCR
T4 sequence (Q9Y2H1 whole entry): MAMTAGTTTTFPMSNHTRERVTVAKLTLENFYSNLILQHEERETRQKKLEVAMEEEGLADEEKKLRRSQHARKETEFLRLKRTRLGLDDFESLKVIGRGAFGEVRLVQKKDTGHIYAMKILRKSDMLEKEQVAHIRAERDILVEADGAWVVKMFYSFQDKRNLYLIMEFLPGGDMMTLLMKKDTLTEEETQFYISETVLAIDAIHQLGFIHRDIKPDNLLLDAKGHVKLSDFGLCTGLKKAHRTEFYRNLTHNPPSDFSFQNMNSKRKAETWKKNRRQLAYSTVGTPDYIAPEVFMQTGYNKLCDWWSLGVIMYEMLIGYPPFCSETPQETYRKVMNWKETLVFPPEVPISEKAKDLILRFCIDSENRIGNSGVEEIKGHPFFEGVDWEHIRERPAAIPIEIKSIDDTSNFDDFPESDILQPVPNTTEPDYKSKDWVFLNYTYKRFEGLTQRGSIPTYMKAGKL
T11 sequence (O96013 whole entry): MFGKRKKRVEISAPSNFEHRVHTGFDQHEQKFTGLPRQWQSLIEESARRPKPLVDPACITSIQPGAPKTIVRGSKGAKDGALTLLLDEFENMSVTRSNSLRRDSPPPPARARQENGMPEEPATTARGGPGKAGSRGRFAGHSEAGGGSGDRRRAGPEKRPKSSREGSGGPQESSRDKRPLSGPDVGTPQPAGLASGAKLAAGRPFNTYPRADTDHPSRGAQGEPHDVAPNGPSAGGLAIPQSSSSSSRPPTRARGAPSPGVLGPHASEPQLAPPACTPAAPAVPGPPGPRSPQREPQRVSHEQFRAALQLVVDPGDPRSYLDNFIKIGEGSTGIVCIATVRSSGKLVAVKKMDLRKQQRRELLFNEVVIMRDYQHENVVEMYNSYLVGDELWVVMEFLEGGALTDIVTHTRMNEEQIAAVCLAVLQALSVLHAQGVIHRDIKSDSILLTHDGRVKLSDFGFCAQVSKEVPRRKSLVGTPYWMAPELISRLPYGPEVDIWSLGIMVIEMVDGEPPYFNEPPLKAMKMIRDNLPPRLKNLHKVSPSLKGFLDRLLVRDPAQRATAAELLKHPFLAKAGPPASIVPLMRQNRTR
T2 sequence (P15056 whole entry): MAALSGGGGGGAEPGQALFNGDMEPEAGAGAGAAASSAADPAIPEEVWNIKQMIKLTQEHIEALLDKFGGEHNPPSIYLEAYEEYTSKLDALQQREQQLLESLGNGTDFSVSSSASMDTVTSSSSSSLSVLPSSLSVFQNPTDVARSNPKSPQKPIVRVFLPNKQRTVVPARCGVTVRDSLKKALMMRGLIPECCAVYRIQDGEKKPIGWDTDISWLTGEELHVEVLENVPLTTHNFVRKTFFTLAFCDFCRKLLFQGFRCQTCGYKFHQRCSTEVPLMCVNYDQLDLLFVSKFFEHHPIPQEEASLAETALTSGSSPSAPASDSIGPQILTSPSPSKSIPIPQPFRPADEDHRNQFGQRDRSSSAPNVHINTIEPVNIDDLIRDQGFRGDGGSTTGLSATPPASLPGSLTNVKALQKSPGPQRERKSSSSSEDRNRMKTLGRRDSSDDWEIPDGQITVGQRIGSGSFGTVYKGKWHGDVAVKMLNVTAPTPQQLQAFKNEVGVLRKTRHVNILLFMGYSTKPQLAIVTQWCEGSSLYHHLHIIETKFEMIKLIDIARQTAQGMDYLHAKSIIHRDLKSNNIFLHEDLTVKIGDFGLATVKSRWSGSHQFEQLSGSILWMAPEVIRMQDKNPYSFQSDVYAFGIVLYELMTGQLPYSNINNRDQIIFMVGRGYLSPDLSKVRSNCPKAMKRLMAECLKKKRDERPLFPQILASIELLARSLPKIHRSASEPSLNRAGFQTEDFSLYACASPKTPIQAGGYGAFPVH
T13 sequence (Q9UK32 whole entry): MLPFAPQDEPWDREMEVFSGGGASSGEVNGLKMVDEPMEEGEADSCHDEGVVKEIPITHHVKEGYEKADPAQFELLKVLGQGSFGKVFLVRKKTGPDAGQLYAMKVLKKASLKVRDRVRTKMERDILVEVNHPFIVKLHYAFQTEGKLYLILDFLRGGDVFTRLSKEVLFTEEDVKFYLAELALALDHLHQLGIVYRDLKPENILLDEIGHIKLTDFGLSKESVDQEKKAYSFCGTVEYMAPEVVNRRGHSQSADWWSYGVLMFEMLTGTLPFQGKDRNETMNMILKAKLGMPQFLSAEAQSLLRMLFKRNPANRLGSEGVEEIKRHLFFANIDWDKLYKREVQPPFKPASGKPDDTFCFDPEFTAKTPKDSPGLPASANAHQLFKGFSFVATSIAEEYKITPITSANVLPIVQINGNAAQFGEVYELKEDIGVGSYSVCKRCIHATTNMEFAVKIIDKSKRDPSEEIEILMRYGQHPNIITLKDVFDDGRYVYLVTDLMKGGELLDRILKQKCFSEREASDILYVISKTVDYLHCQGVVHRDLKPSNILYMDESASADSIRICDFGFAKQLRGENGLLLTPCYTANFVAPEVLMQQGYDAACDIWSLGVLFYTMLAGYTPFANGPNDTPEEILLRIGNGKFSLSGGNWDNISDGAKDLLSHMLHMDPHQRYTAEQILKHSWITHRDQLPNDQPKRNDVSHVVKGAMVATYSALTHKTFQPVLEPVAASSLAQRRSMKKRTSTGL
T10 sequence (P49759 whole entry): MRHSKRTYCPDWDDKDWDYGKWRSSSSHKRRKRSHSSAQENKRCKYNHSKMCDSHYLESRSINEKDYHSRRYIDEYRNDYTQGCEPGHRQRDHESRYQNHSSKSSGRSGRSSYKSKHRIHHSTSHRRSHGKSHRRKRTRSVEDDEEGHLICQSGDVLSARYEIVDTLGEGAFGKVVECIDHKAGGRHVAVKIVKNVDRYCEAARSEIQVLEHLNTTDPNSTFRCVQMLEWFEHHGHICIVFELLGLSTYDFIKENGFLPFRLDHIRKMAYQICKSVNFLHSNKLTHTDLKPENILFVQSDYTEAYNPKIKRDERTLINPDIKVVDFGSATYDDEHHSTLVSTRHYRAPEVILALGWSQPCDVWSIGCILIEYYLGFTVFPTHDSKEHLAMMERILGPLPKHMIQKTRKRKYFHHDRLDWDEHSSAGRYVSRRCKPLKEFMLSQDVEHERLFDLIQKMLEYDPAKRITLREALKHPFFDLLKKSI
T3 sequence (Q99640 whole entry): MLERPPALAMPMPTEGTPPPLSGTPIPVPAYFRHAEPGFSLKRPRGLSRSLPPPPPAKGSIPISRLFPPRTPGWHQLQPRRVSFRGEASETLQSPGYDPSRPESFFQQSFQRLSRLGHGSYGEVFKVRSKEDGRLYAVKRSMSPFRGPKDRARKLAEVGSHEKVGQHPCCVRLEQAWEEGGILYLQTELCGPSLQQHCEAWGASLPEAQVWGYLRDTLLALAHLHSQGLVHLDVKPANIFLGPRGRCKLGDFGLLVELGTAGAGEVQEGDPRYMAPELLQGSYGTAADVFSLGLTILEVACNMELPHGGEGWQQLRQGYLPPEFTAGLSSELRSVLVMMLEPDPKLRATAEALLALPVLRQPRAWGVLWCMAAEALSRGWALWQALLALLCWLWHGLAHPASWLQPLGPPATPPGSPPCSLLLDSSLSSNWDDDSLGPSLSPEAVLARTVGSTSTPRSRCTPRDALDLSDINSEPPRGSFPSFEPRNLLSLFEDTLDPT
T8 sequence (P68400 whole entry): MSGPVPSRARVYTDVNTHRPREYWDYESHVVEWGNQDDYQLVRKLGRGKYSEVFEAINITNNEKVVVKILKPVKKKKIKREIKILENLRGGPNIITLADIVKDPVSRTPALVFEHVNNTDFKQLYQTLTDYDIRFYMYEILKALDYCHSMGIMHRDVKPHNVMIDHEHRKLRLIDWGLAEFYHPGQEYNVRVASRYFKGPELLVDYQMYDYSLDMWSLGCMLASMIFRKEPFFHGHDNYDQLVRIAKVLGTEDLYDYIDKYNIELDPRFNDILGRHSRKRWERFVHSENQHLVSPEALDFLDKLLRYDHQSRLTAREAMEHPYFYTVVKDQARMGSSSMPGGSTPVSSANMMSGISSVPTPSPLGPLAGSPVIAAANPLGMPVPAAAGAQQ

On to `CCc1cnc(Nc2nc(Cl)ccc2[N+](=O)[O-])nc1N1CCN(Cc2nc3cc(C(F)(F)F)ccc3[nH]2)CC1` [Compound 2], for which the ΔTm at 10 µM on STK6 is 0.2 °C; at BRAF, -0.1 °C; on PKMYT1, -1 °C; at STK38L, -0.2 °C; on ULK3 it was 0.4 °C; at NEK1, -0.7 °C. The ΔTm at 10 µM is 0.4 °C on CHEK2; 0.1 °C on CK2A1; 0.5 °C on MAP2K6; 0.3 °C on CLK1; 0.8 °C on PAK4; 0.1 °C at MARK4. Besides, the ΔTm at 10 µM was 0.6 °C on RPS6KA6; 0.1 °C on MAPK10; 0.2 °C at NEK7; -0.1 °C on PDK4; -0.7 °C at STK17; 0.2 °C at MAP3K5. The ΔTm at 10 µM on CLK3 was determined as 0.1 °C. Further, the half-life in [1] was 5.79 days.

For orientation: ΔTm means the change in melting temperature against a reference sample.

The record behind these values is paper PMC8534050, “Discovery of a Potent and Highly Isoform-Selective Inhibitor of the Neglected Ribosomal Protein S6 Kinase Beta 2 (S6K2)” (Cancers, 2021).
